Patent US9115153B2, “Aza metal complexes” (Canon Kabushiki Kaisha, priority 2007, dated 2015)

Key:
[1] = T1 relaxation time measurement by 7T MRI (inversion recovery FISP); type: physicochemical; conditions: 1.3 mM in ultrapure water, 24° C.
Experimental: The T1 relaxation time measurement by MRI was performed using a 7T MRI apparatus (BioSpec 70/20 manufactured Bruker Biospin K.K.). The T1 relaxation time was measured under the measurement conditions of TR/TE 3/1.5 ms, FOV=8*4 cm, matrix=128*128, NA=2 and a temperature of 24° C. using an inversion recovery FISP method. Aqueous solutions of six different concentrations (1.3 mM, 0.65 mM, 0.325 mM, 0.13 mM, 0.026 mM and 0.013 mM) were prepared by dissolving complex (R)-11 in ultrapure water, and each of the aqueous solutions was placed into an Eppendorf tube and used directly as a measurement sample.
The T1 relaxation time was measured in the same manner as in Example 5. A GdCl3 aqueous solution was prepared by dissolving commercially available GdCl3.6H2O in ultrapure water so that the concentration was adjusted to 1.3 mM, and Gd (DTPA) aqueous solutions were prepared by diluting a commercially available Gd (DTPA) aqueous solution (630 mM) with ultrapure water so that the concentration was adjusted to 2.0, 1.3, 1.0, 0.5 and 0.25 mM, respectively. Each of the aqueous solutions was placed into an Eppendorf tube and used directly as a measurement sample.

[2] = aqueous solutions of 2.0, 1.0, 0.5 and 0.25 mM, saturation recovery spin echo, 24° C.
[3] = T1 relaxation time measurement by 500 MHz NMR (aqueous solution); type: physicochemical; conditions: 0.13 mM aqueous solution, 10% heavy water, 27° C., inversion recovery
Experimental: The T1 relaxation time measurement was performed using a broadband probe on a 500 MHz NMR apparatus (Avance 500 manufactured by Bruker Biospin K.K.). The T1 relaxation times were measured at 27° C. using an inversion recovery method.
First, a Gd triamine 2nd G-12-ol-dendrimer complex (R)-11 was dissolved in 1 ml of ultrapure water to prepare an aqueous solution in which the concentration of complex (R)-11 was 24.05 mM. In addition, the concentration of complex (R)-11 was determined from the Gd concentration by inductive coupled plasma emission spectrometry (ICP emission spectrometry). Next, the aqueous solution was diluted with ultrapure water and heavy water so that the concentration of complex (R)-11 was 0.13 mM and the concentration of heavy water was 10%, and the resulting aqueous solution was used as an NMR measurement sample. […] The data shown in FIG. 1 clarified that the T1 time of water of the complex (R)-11 aqueous solution was 429 ms.
The T1 relaxation time was measured in the same manner as in Example 4. […] The T1 relaxation time of water for the Gd (DTPA) aqueous solution sample determined from the data shown in FIG. 2 was 1333 ms, which is considerably longer than the T1 relaxation time of complex (R)-11.

[4] = XAFS measurement and analysis (coordination number); type: physicochemical; conditions: for comparison
Experimental: The XAFS analysis of the complex (R)-11 was performed at Spring-8.
Specifically, the number of the coordinated water molecules was estimated by removing background from XAFS spectra and performing fitting using Fourier transformation or Fourier inverse transformation.
Further, the XAFS spectra were obtained by a transmission method using an ion chamber for a pellet (in a powder state) of the complex ((R)-11) and a fluorescence method using a multi-element semiconductor detector for an aqueous solution of the complex ((R)-11), respectively.
When fitting was performed without fixing the proximal coordination number to 9, the following results were obtained. In a powder state, the coordination number of O was 6.99 and the distance between atoms of Gd and O was 2.421 Å, and in an aqueous solution (3 mM) the coordination number of O was 9.77 and the distance between atoms of Gd and O was 2.430 Å.

[5] = T1 relaxation time measurement by 500 MHz NMR in FBS solution; type: physicochemical; conditions: FBS 80%, heavy water 10%, H2O 10%; otherwise as Example 4 / Comparative Example 1 (500 MHz NMR)
Experimental: The T1 time was measured in the same manner as in Example 4 except that the NMR measurement sample was changed to an FBS (fetal bovine serum) solution of the complex (R)-11 (FBS concentration: 80%, heavy water concentration: 10%, H2O concentration: 10%).
The T1 time was measured in the same manner as in Comparative Example 1 except that the NMR measurement sample was changed to an FBS (fetal bovine serum) solution of GdCl3 or Gd (DTPA) (FBS concentration: 80%, heavy water concentration: 10%, H2O concentration: 10%).

Row | SMILES | T1 [1] | T1 relaxation ability r1 [2] | T1 relaxation time of water [3] | coordination number of water molecule [4] | T1 time of water for FBS solution [5]
1 | O=C([O-])CN(CCN(CC(=O)[O-])CC(=O)O)CCN(CC(=O)[O-])CC(=O)O.[Gd+3] [Gd (DTPA)] | 205.653 ms | 4.661 L/mmol/s | 1333 ms | 1 | 1429 ms
2 | [Cl][Gd]([Cl])[Cl] [GdCl3] | 58.991 ms |  | 712 ms |  | 1708 ms
3 | O=C([O-])CN1CCN(CC(=O)[O-])CCN(CC(=O)O)CCN(CC(=O)[O-])CC1.[Gd+3] [Gd (DOTA), reference compound] |  |  |  | 1 | 
